# Test results from patent publication US20210371385A1, “POLYMORPHIC AND AMORPHOUS FORMS OF ISOQUINOLINONE AND METHODS OF USE THEREOF” (Sojournix, Inc., priority 2018, published 2021).
# Experiments:
# [1] = Solubility by gravimetric method in 14 solvents; type: physicochemical; conditions: for solubility at 2 days: organic solvent or mixture, thermodynamic from solid; for Solubility: Water:DMSO (9:1 vol)
# Description: Solubility measurements were done by gravimetric method in 14 different solvents at two temperatures (23° C. and 50° C.). About 25-35 mg solid was dispensed in 2 mL vials and 0.75 mL solvent was added to form a slurry. The slurries were then stirred for two days. The vials were centrifuged and the supernatant was collected for solubility measurement by gravimetric method.
# [2] = Log P/D7.4 by shake flask method, octanol-buffer; type: physicochemical; conditions: pH 7.4, octanol-buffer two phase system
# Description: The Log P/D7.4 value was determined by the shake flask method in an octanol-buffer two phase systems.
compound,measurement,setting,value
"CCNn1c(C)c(C(=O)N[C@H](c2ccccc2)C2CC2)c2cccc(F)c2c1=O [SJB-01, 2-Ethylamino-8-fluoro-3-methyl-1-oxo-1,2-dihydro-isoquinoline-4-carboxylic acid ((S)-cyclopropyl-phenyl-methyl)-amide]",solubility at 2 days,"[1]; ACN, 23 °C",62 mg/mL
same,solubility at 2 days,"[1]; ACN, 50 °C",99 mg/mL
same,solubility at 2 days,"[1]; EtOAc, 23 °C",42 mg/mL
same,solubility at 2 days,"[1]; EtOAc, 50 °C",67 mg/mL
same,solubility at 2 days,"[1]; EtOH, 23 °C",> 42 mg/mL
same,solubility at 2 days,"[1]; IPA:water (85:15 vol), 23 °C",27 mg/mL
same,solubility at 2 days,"[1]; IPA:water (85:15 vol), 50 °C",60 mg/mL
same,solubility at 2 days,"[1]; IPAc, 23 °C",22 mg/mL
same,solubility at 2 days,"[1]; IPAc, 50 °C",37 mg/mL
same,solubility at 2 days,"[1]; MIBK, 23 °C",40 mg/mL
same,solubility at 2 days,"[1]; MIBK, 50 °C",61 mg/mL
same,solubility at 2 days,"[1]; MtBE, 23 °C",8 mg/mL
same,solubility at 2 days,"[1]; MtBE, 50 °C",11 mg/mL
same,solubility at 2 days,"[1]; THF, 23 °C",> 68 mg/mL
same,solubility at 2 days,"[1]; THF, 50 °C",> 68 mg/mL
same,Solubility,[1]; 23 °C,Nil
same,Solubility,[1]; 50 °C,Nil
same,solubility at 2 days,"[1]; acetic acid, 23 °C",> 72 mg/mL
same,solubility at 2 days,"[1]; acetic acid, 50 °C",> 72 mg/mL
same,solubility at 2 days,"[1]; acetone, 23 °C",> 67 mg/mL
same,solubility at 2 days,"[1]; acetone, 50 °C",> 67 mg/mL
same,solubility at 2 days,"[1]; dioxane, 23 °C",> 74 mg/mL
same,solubility at 2 days,"[1]; dioxane, 50 °C",> 74 mg/mL
same,solubility at 2 days,"[1]; ethanol, EtOH, 50 °C",> 42 mg/mL
same,solubility at 2 days,"[1]; isopropanol (IPA), IPA, 23 °C",29 mg/mL
same,solubility at 2 days,"[1]; isopropanol (IPA), IPA, 50 °C",64 mg/mL
same,solubility at 2 days,"[1]; MeOH, 23 °C, lot L100142-1-1",> 76 mg/mL
same,solubility at 2 days,"[1]; MeOH, 50 °C, lot L100142-1-1",> 76 mg/mL
same,logP,[2],3.3
